Columns and labels:
[1] = system: HER2-expressing HCC1954 tumors; assay: PET/CT imaging (pretargeted, preclicked, tracer alone) in HCC1954 tumor-bearing mice; format: in vivo; details: HCC1954 tumor-bearing female mice, 60 min postinjection
Description: Animal studies were approved by the national Project Authorization Board in Finland (licenses: ESAVI/12132/04.10.07/2017 and ESAVI/8648/2020) and were carried out in compliance with EU Directive 2010/EU/63 on the protection of animals used for scientific purposes. Healthy female Balb/cAnNrj mice (9–14 weeks old, 19 weeks old for fasting studies) were used for experiments with [^18F]FDG-Tz. Female Rj:Athymic-Foxn1^nu/nu mice (8–10 weeks old) bearing subcutaneous HER2-expressing HCC1954 tumors were used for pretargeted and control preclicked experiments with [^18F]TCO-MSNA, detailed information for the mice preparation was described earlier.[59] Animals were housed in individually ventilated cages under a 12 h light/dark cycle with ad libitum access to water and food unless otherwise stated. Animals were anesthetized with isoflurane (induction 4–5%, maintenance 1.5–2.5%, 0.4 L/min O2) and sacrificed by cervical dislocation after applying cardiac puncture for blood collection. […]
Image analysis was performed with Carimas software (version 2.10, Turku PET Centre, Turku, Finland). CT scans were utilized as an anatomical reference combined with the radioactivity signal from PET images. […] Standardized uptake values (SUV) were calculated, corrected with the remaining radioactivity in the cannula, tail, and syringe, and decay-corrected to the time of injection. […]

[2] = Stability in end product formulation by analytical radio-HPLC; format: physicochemical; details: for 6 h from EOS, end product formulation (PBS, ethanol ≤10%) at r.t.
Description: Chemical and radiochemical purity and stability of precursors and radiotracers were measured with analytical HPLC (Hitachi LaChrom Elite, Schaumburg, USA). Jupiter Proteo reversed-phase C18 column (4 μm, 250 mm × 4.6 mm) was used at a flow rate of 1 mL/min. HPLC eluents were A, 0.1% trifluoroacetic acid (TFA, v/v) in water; B, 0.1% TFA in acetonitrile. The gradient changed from 15% to 35% in 0–15 min. For radiolabeled MSNA quality control, SEC at a flow rate of 1 mL/min was used (Waters Protein-Pak 33SW (7.5 × 300 mm), eluent 0.1 M KH2PO4, pH 7.0).
The cyclotron produced [^18F]fluoride, dissolved in ^18O-enriched water (Rotem Industries Limited, Arava, Israel), was trapped in a Sep-Pak QMA Plus Light cartridge (Waters, preconditioned with 10 mL of 0.5 M K2CO3, 15 mL of water). [^18F]F^– was eluted from the cartridge with 2 mL of QMA-eluent solution (stock solution contains 237.5 mg of Kryptofix 2.2.2, 42.5 mg of potassium carbonate, 2 mL of Milli-Q water in 50 mL of acetonitrile). The reaction mixture was evaporated to dryness with Ar gas flow (70 mL/min for 10 min, and then 80 mL/min for 5–10 min more) under heating at 120 °C. […] The stability of [^18F]FDG-Tz was analyzed by analytical radio-HPLC up to 6 h after EOS in the end product formulation at r.t.

Tumor SUV [1]: 0.16 ± 0.04 SUV
Radiochemical purity retained (stability) [2]: > 98%
Compound: O=C(CCON=C[C@H]([18F])[C@@H](O)[C@H](O)[C@H](O)CO)NCc1ccc(-c2nncnn2)cc1 [[^18F]FDG-Tz]
